Data: patent US11760754B2, “Heterocyclic mitochondrial activity inhibitors and uses thereof” (UNIVERSITÉ DE MONTRÉAL, priority 2017, dated 2023)
Where two headings read alike, the source gives them in different places.

What was measured:
OCI-AML3 cells = experiment: OCI-AML3 cell growth inhibition, dose-response viability assay (CellTiterGlo); type: cell-based; conditions: Homo sapiens, OCI-AML-3, 144 h, read-out: AML-3 EC50
In short: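 OCI-AML3 cells seeded, then exposed to compound in serial dilutions from 10 μM to 0.5 nM, in duplicate or quadruplicate. Viability read by CellTiter-Glo.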

MLL-AF9 cells = experiment: MLL-AF9 leukemia cell growth inhibition, dose-response viability assay (CellTiterGlo); type: cell-based, murine; conditions: Mus musculus, read-out: MLL-AF9 EC50
In short: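 Murine MLL-AF9 leukemia cells (female, MSCV MLL-AF9 IRES Puro transduced) were treated with serial compound dilutions from 10 μM to 0.5 nM in duplicates or quadruplicates. Viability read by CellTiterGlo dose-response.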

SMILES | EC50 (OCI-AML3 cells) | EC50 (MLL-AF9 cells; MLL-AF9, 120 h) | EC50 (OCI-AML3 cells; OCI-AML3 cells, 6 days of culture, CellTiterGlo) | EC50 (MLL-AF9 cells; 120 h, MLL-AF9 cells, 5 days of culture, CellTiterGlo)
COc1ccc(/C=C/c2nc(COc3ccc(CCCCn4ccnn4)cc3)co2)cc1 [Compound 32, (E)-4-((4-(4-(1H-1,2,3-triazol-1-yl)butyl)phenoxy)methyl)-2-(4-methoxystyryl)oxazole] | 0.1 to 0.5 µM | 0.1 to 0.5 µM | – | –
O=C(Nc1ccc(C(F)(F)F)cc1[N+](=O)[O-])c1coc(COc2ccc(CCCCn3ccnn3)cc2)n1 [Compound 78, 2-((4-(4-(1H-1,2,3-triazol-1-yl)butyl)phenoxy)methyl)-N-(2-nitro-4-(trifluoromethyl)phenyl)oxazole-4-carboxamide] | 1 to 10 µM | > 10 µM | – | –
FC(F)(F)c1ccc(-c2ccc(COc3ccc(CCCCn4ccnn4)cc3)cn2)cc1 [Compound 75] | 1 to 10 µM | 1 to 10 µM | – | –
Fc1ccccc1/C=C/c1nc(COc2ccc(CCCCn3ccnn3)cc2)co1 [Compound 41, (E)-4-((4-(4-(1H-1,2,3-triazol-1-yl)butyl)phenoxy)methyl)-2-(2-fluorostyryl)oxazole] | 0.1 to 0.5 µM | 0.1 to 0.5 µM | – | –
C(=C\c1nc(COc2ccc(CCCCn3ccnn3)cc2)co1)/c1cccnc1 [Compound 82, (E)-4-((4-(4-(1H-1,2,3-triazol-1-yl)butyl)phenoxy)methyl)-2-(2-(pyridin-3-yl)vinyl)oxazole] | 0.1 to 0.5 µM | 0.1 to 0.5 µM | – | –
Fc1cc(Br)ccc1/C=C/c1nc(CNc2ccc(CCCCn3ccnn3)cc2)co1 [Compound 27, (E)-4-(4-(1H-1,2,3-triazol-1-yl)butyl)-N-((2-(4-bromo-2-fluorostyryl)oxazol-4-yl)methyl)aniline] | 0.5 to 1 µM | 0.05 to 0.1 µM | – | –
FC(F)(F)c1ccc(/C=C/c2nc(COc3ccc(CCCCn4ccnn4)cc3)co2)cc1 [Compound 1, (E)-4-((4-(4-(1H-1,2,3-triazol-1-yl)butyl)phenoxy)methyl-2-(4-trifluoromethyl)styryl)oxazole, reference compound] | – | – | 0.1 to 0.5 µM | 0.05 to 0.1 µM
Fc1ccc(/C=C/c2nc(COc3ccc(CCCCn4ccnn4)cc3)co2)c(Cl)c1 [Compound 117, (E)-4-((4-(4-(1H-1,2,3-triazol-1-yl)butyl)phenoxy)methyl)-2-(2-chloro-4-fluorostyryl)oxazole] | 0.1 to 0.5 µM | 0.1 to 0.5 µM | – | –
FC(F)(F)c1ccc(/C=C/c2nc(COc3ccc(CCCCn4cncn4)cc3)co2)c(Oc2ccc(CCCCn3cncn3)cc2)c1 [Compound 89, (E)-2-(2-(4-(4-(1H-1,2,4-triazol-1-yl)butyl)phenoxy)-4-(trifluoromethyl)styryl)-4-((4-(4-(1H-1,2,4-triazol-1-yl)butyl)phenoxy)methyl)oxazole] | 1 to 10 µM | 1 to 10 µM | – | –
Fc1cc(C(F)(F)F)ccc1/C=C/c1nc(Cc2ccc(CCCCn3ccnn3)cc2)co1 [Compound 134, (E)-4-(4-(4-(1H-1,2,3-triazol-1-yl)butyl)benzyl)-2-(2-fluoro-4-(trifluoromethyl)styryl)oxazole] | 1 to 10 µM | 0.5 to 1 µM | – | –
N#Cc1ccc(/C=C/c2nc(COc3ccc(SCCCn4ccnn4)cc3)co2)c(F)c1 [Compound 141, (E)-4-(2-(4-((4-((3-(1H-1,2,3-triazol-1-yl)propyl)thio)phenoxy)methyl)oxazol-2-yl)vinyl)-3-fluorobenzonitrile] | < 0.05 µM | 0.05 to 0.1 µM | – | –
C(=C\c1nc(COc2ccc(CCCCn3ccnn3)cc2)co1)/c1ccccn1 [Compound 84, (E)-4-((4-(4-(1H-1,2,3-triazol-1-yl)butyl)phenoxy)methyl)-2-(2-(pyridin-2-yl)vinyl)oxazole] | 1 to 10 µM | 1 to 10 µM | – | –
Fc1ccc(/C=C/c2nc(COc3ccc(CCCCn4ccnn4)cc3)co2)c(F)c1 [Compound 45, (E)-4-((4-(4-(1H-1,2,3-triazol-1-yl)butyl)phenoxy)methyl)-2-(2,4-difluorostyryl)oxazole] | 0.05 to 0.1 µM | 0.1 to 0.5 µM | – | –
Fc1cc(F)c2cc(-c3nc(COc4ccc(CCCCn5ccnn5)cc4)co3)[nH]c2c1 [Compound 128, 4-((4-(4-(1H-1,2,3-triazol-1-yl)butyl)phenoxy)methyl)-2-(4,6-difluoro-1H-indol-2-yl)oxazole] | < 0.05 µM | < 0.05 µM | – | –
OCCc1cn(CCCCc2ccc(OCc3coc(/C=C/c4ccc(C(F)(F)F)cc4)n3)cc2)nn1 [Compound 4, (E)-2-(1-(4-(4-((2-(4-Trifluoromethyl)styryl)oxazol-4-yl)methoxy)phenyl)butyl-1H-1,2,3-triazol-4-yl)ethanol] | 1 to 10 µM | 0.5 to 1 µM | – | –
Fc1ccc(/C=C/c2nc(COc3ccc(CCCCn4ccnn4)cc3)co2)cc1 [Compound 39, (E)-4-((4-(4-(1H-1,2,3-triazol-1-yl)butyl)phenoxy)methyl)-2-(4-fluorostyryl)oxazole] | 0.1 to 0.5 µM | 0.1 to 0.5 µM | – | –
Fc1cc(C(F)(F)F)ccc1/C=C/c1nc(COc2ccc(CCCCn3cccn3)cc2)co1 [Compound 91, (E)-4-((4-(4-(1H-pyrazol-1-yl)butyl)phenoxy)methyl)-2-(2-fluoro-4-(trifluoromethyl)styryl) oxazole] | 1 to 10 µM | 0.5 to 1 µM | – | –
Fc1cnccc1/C=C/c1nc(COc2ccc(CCCCn3ccnn3)cc2)co1 [Compound 81, (E)-4-((4-(4-(1H-1,2,3-triazol-1-yl)butyl)phenoxy)methyl)-2-(2-(3-fluoropyridin-4-yl)vinyl)oxazole] | 0.05 to 0.1 µM | 0.05 to 0.1 µM | – | –
O=C(CCCn1ccnn1)c1ccc(OCc2coc(/C=C/c3ccc(C(F)(F)F)cc3)n2)cc1 [Compound 16, (E)-4-(1H-1,2,3-triazol-1-yl)-1-(4-((2-(4-(trifluoromethyl)styryl)oxazol-4-yl)methoxy)phenyl)butan-1-one] | 1 to 10 µM | 0.1 to 0.5 µM | – | –

Continued, in another order:

EC50 (OCI-AML3 cells) | EC50 (MLL-AF9 cells; MLL-AF9, 120 h) | SMILES | EC50 (OCI-AML3 cells; OCI-AML3 cells, 6 days of culture, CellTiterGlo) | EC50 (MLL-AF9 cells; 120 h, MLL-AF9 cells, 5 days of culture, CellTiterGlo)
1 to 10 µM | 1 to 10 µM | O=[N+]([O-])c1ccc(/C=C/c2nc(COc3ccc(CCCCn4ccnn4)cc3)co2)c(Oc2ccc(CCCCn3ccnn3)cc2)c1 [Compound 101, (E)-2-(2-(4-(4-(1H-1,2,3-triazol-1-yl)butyl)phenoxy)-4-nitrostyryl)-4-((4-(4-(1H-1,2,3-triazol-1-yl)butyl)phenoxy)methyl)oxazole] | – | –
0.5 to 1 µM | 0.1 to 0.5 µM | O=[N+]([O-])c1ccccc1/C=C/c1nc(COc2ccc(CCCCn3ccnn3)cc2)co1 [Compound 42, (E)-4-((4-(4-(1H-1,2,3-triazol-1-yl)butyl)phenoxy)methyl)-2-(2-nitrostyryl)oxazole] | – | –
1 to 10 µM | 1 to 10 µM | Fc1cc(C(F)(F)F)ccc1/C=C/c1nc(COc2ccc(CCCCc3ccncc3)cc2)co1 [Compound 104, (E)-2-(2-fluoro-4-(trifluoromethyl)styryl)-4-((4-(4-(pyridin-4-yl)butyl)phenoxy)methyl)oxazole] | – | –
0.1 to 0.5 µM | 0.1 to 0.5 µM | Oc1ccc(/C=C/c2nc(COc3ccc(CCCCn4ccnn4)cc3)co2)cc1 [Compound 62, (E)-4-(2-(4-((4-(4-(1H-1,2,3-triazol-1-yl)butyl)phenoxy)methyl)oxazol-2-yl)vinyl)phenol] | – | –
1 to 10 µM | 1 to 10 µM | Fc1cc(C(F)(F)F)ccc1CCc1nc(COc2ccc(CCCCn3ccnn3)cc2)co1 [Compound 11, 4-((4-(4-(1H-1,2,3-triazol-1-yl)butyl)phenoxy)methyl)-2-(2-fluoro-4-(trifluoromethyl)phenethyl)oxazole] | – | –
0.5 to 1 µM | 0.1 to 0.5 µM | Fc1ccc2sc(-c3nc(COc4ccc(CCCCn5ccnn5)cc4)co3)cc2c1 [Compound 113, 4-((4-(4-(1H-1,2,3-triazol-1-yl)butyl)phenoxy)methyl)-2-(5-fluorobenzo[b]thiophen-2-yl)oxazole] | – | –
0.5 to 1 µM | 0.1 to 0.5 µM | C(=C\c1nc(COc2ccc(CCCCn3ccnn3)cc2)co1)/c1ccncc1 [Compound 80, (E)-4-((4-(4-(1H-1,2,3-triazol-1-yl)butyl)phenoxy)methyl)-2-(2-(pyridin-4-yl)vinyl) oxazole] | – | –
0.1 to 0.5 µM | 0.1 to 0.5 µM | C(=C\c1nc(COc2ccc(CCCCn3ccnn3)cc2)co1)/c1ccccc1 [Compound 47, (E)-4-((4-(4-(1H-1,2,3-triazol-1-yl)butyl)phenoxy)methyl)-2-styryloxazole] | – | –
0.5 to 1 µM | 0.1 to 0.5 µM | CN(C)C(=O)OCCC(=O)NCCCCc1ccc(OCc2coc(/C=C/c3ccc(C(F)(F)F)cc3)n2)cc1 [Compound 87, (E)-3-oxo-3-((4-(4-((2-(4-(trifluoromethyl)styryl)oxazol-4-yl)methoxy)phenyl)butyl)amino)propyl dimethylcarbamate] | – | –
1 to 10 µM | 0.1 to 0.5 µM | FC(F)(F)c1ccc(/C=C/c2nc(CNc3ccc(CCCCn4ccnn4)cc3)co2)cc1 [Compound 26, (E)-4-(4-(1H-1,2,3-triazol-1-yl)butyl)-N-((2-(4-(trifluoromethyl)styryl)oxazol-4-yl)methyl)aniline] | – | –
< 0.05 µM | 0.05 to 0.1 µM | Fc1cc(OC(F)(F)F)ccc1/C=C/c1nc(COc2ccc(CCCCn3ccnn3)cc2)co1 [Compound 124, (E)-4-((4-(4-(1H-1,2,3-triazol-1-yl)butyl)phenoxy)methyl)-2-(2-fluoro-4-(trifluoromethoxy)styryl)oxazole] | – | –
0.5 to 1 µM | 0.1 to 0.5 µM | CN(C)C(=O)OCCc1cn(CCCCc2ccc(OCc3coc(/C=C/c4ccc(C(F)(F)F)cc4)n3)cc2)nn1 [Compound 68, (E)-2-(1-(4-(4-((2-(4-(trifluoromethyl)styryl)oxazol-4-yl)methoxy)phenyl)butyl)-1H-1,2,3-triazol-4-yl)ethyl dimethylcarbamate] | – | –
0.1 to 0.5 µM | 0.05 to 0.1 µM | OC(CCCn1ccnn1)c1ccc(OCc2coc(/C=C/c3ccc(C(F)(F)F)cc3F)n2)cc1 (stereo not shown) [Compound 23, (E)-1-(4-((2-(2-fluoro-4-(trifluoromethyl)styryl)oxazol-4-yl)methoxy)phenyl)-4-(1H-1,2,3-triazol-1-yl)butan-1-ol] | – | –
